Measurements as given in patent US12678451B2, “Cannabinoid and omega fatty acid compositions and methods of using” (GreenWay Herbal Products, LLC, priority 2019, dated 2026).

What was measured:
[1] = system: cytokines induced in mice by LPS; assay: Mouse LPS cytokine model, Example 6C Study 2, omega fatty acids with or without 0.5 mg/kg 1:1 CBD:CBDA; format: in vivo; conditions: 0.5 mg/kg (0.01 mg per mouse)
Description: (§1) A series of experiments using a mouse LPS cytokine animal model were performed. In the mouse LPS cytokine animal model, mice were injected with LPS, which induced the immune response shortly after the mice were injected with one of the potential anti-inflammatory compounds under evaluation (the “test compound”). The efficacy of the test compound was evaluated based on its ability to reduce expression levels of inflammatory cytokines that were elevated due to the immune response. The test compounds included a cannabinoid, an omega fatty acid, and a cannabinoid-omega fatty acid composition.
(§2) The mice were intraperitoneally injected with 0.1 mL of the test compound. One hour later, the mice were intraperitoneally injected with 0.1 mL of LPS in phosphate buffered saline (PBS). Four hours later, a heart puncture was performed and the blood was allowed to clot to generate serum. 0.1 mL of the serum was diluted 1:2 with PBS and stored at −80° C. The serum was then sent to a laboratory where a mouse cytokine array/chemokine array 31-plex (MD31) analysis was performed that analyzed the expression levels of the 32 cytokines/chemokines listed in Table 9, above.
(§3) For each considered test compound, the ability of the test compound to suppress each inflammatory cytokine was calculated by determining the percent suppression.
In this study, the effects of combining 1:1 CBD:CBDA with anti-inflammatory omega unsaturated fatty acids using the mouse LPS cytokine animal model were examined.
40 female C57BL/6 mice that weighed approximately 20 g each were allowed to acclimate for one week with unlimited access to food and water. On the day of the study, the mice were weighed and split into ten groups of four mice each so that the average weight of each group was as close as possible to each other. […] (9) LPS plus 37.50 mg omega fatty acids (0.1 mL injection of 375.00 mg/mL omega fatty acids diluted in MCT oil, followed 1 hour later by a 0.1 mL injection of LPS in PBS); and (10) LPS plus 37.50 mg omega fatty acids/0.01 mg 1:1 CBD:CBDA (0.1 mL injection of 375.00 mg/mL omega fatty acids/0.1 mg/mL 1:1 CBD:CBDA diluted in MCT oil, followed 1 hour later by a 0.1 mL injection of LPS in PBS).
Because the purpose of this experiment was to evaluate the effectiveness of combining 1:1 CBD:CBDA and the anti-inflammatory omega fatty acids, only cytokines that could be suppressed by one of the anti-inflammatory agents used in this study were considered.

[2] = system: cytokines induced in mice by LPS; assay: Mouse LPS cytokine model, Example 6D, ALA, DHA and EPA omega-3 samples; format: in vivo; conditions: 12.5 mg total omega fatty acids per mouse, DXM 0.01 mg per mouse
Description: as §1, §2, §3
36 female C57BL/6 mice that weighed approximately 20 g each were obtained and allowed to acclimate for one week after arrival with unlimited access to food and water. On the day of the study, the mice were weighed and split into eight groups of four mice each so that the average weight of each group was as close as possible to each other.
All of the omega fatty acid samples that were tested were diluted so the dose was 12.5 mg of total omega fatty acids per mouse. […] The omega fatty acids samples tested included: (1) pollock oil, 456 mg/mL omega unsaturated fatty acids. The pollock oil contained a mixture of anti-inflammatory omega-3, omega-7 and omega-9 unsaturated fatty acids. […] (2) Flaxseed oil, 656 mg/mL anti-inflammatory omega unsaturated fatty acids. The flaxseed oil contained a mixture of anti-inflammatory omega-3 and omega-9 unsaturated fatty acids. The omega-3 and omega-9 unsaturated fatty acids constituted 77.6% and […], respectively, of the anti-inflammatory omega fatty acids contained in the flaxseed oil. A 12.5 mg dose contained 9.7 mg of ALA in the triglyceride form. (3) Mono 2:1 DHA:EPA, 744 mg/mL omega-3 unsaturated fatty acids that were primarily DHA or EPA. A 12.5 mg dose contained 7.81 mg of DHA and 3.91 mg of EPA. The omega-3 unsaturated fatty acids were in the free mono form. […] A 12.5 mg dose contained 3.85 mg of DHA and 7.69 mg of EPA. The omega-3 unsaturated fatty acids were in the free mono form. (5) Tri 2:1 DHA:EPA, 678.9 mg/mL omega-3 unsaturated fatty acids that were primarily DHA or EPA. A 12.5 mg dose contained 7.88 mg of DHA and 3.94 mg of EPA. The omega-3 unsaturated fatty acids were in the triglyceride form. (6) Tri 1:2 DHA:EPA, 678.9 mg/mL omega-3 unsaturated fatty acids that were primarily DHA or EPA. A 12.5 mg dose contained 3.60 mg of DHA and 7.19 mg of EPA. The omega-3 unsaturated fatty acids were in the triglyceride form.

[3] = system: cytokine levels in differentiated THP-1 cells treated with LPS; assay: THP-1 human cellular LPS cytokine assay, four independent experiments, per cytokine; format: cell-based; conditions: LPS 20 ng/mL

With C[C@@H]1C[C@H]2[C@@H]3CCC4=CC(=O)C=C[C@]4(C)[C@@]3(F)[C@@H](O)C[C@]2(C)[C@@]1(O)C(=O)CO [Dexamethasone, dexamethasone] the “AVERAGE SUPPRESSION” value [1] was 46.54%, the IFNγ suppression [1] was 70.28% and the IL-6 suppression [1] was 76.63%. For the same compound, the IL-7 suppression [1] was 31.25%, the IL-10 suppression [1] was 24.07% and the “IL-12β p40 suppression” value [1] was 56.90%. For the same compound, the IL-15 suppression [1] was 42.45%, the IL-17 suppression [1] was 64.04% and the IP-10 suppression [1] was 44.62%. For the same compound, the KC suppression [1] was 79.04%, the LIF suppression [1] was 51.34% and the MCP-1 suppression [1] was 57.38%. For the same compound, the MIG suppression [1] was 20.57%, the MIP-1α suppression [1] was 59.54% and the MIP-1β suppression [1] was 27.89%. The RANTES suppression [1] was 46.25%, the TNF-α suppression [1] was 61.44% and the “AVERAGE SUPPRESSION” value [2] was 43.34%. It also gave an Eotaxin suppression [2] of 24.14%, an IL-6 suppression [2] of 76.02% and an IL-10 suppression [2] of 47.30%. For the same compound, the IP-10 suppression [2] was 41.65%, the KC suppression [2] was 56.41% and the MCP-1 suppression [2] was 54.99%. For the same compound, the MIG suppression [2] was 25.46%, the MIP-1α suppression [2] was 55.47% and the MIP-1β suppression [2] was 48.33%. The RANTES suppression [2] was 39.58%, the “AVERAGE SUPPRESSION” value ([2]; listed as DXM) was 43.34% and the “AVERAGE SUPPRESSION” value ([2]; listed as dexamethasone) was 43.34%. The EGF suppression ([3]; 2 µM) was 0.74%, the FGF-β suppression ([3]; 2 µM) was −18.23% and the Flt-3L suppression ([3]; 2 µM) was 57.45%. The IFNγ suppression ([3]; 2 µM) was 56.19%, the IL-1α suppression ([3]; 2 µM) was 77.5% and the IL-1β suppression ([3]; 2 µM) was 67.84%. It also gave an IL-4 suppression ([3]; 2 µM) of 56.32%, an IL-6 suppression ([3]; 2 µM) of 90.56% and an IL-7 suppression ([3]; 2 µM) of 64.36%. The IL-10 suppression ([3]; 2 µM) was 74.07%, the “IL-12 p70 suppression” value ([3]; 2 µM) was 1.37% and the IL-15 suppression ([3]; 2 µM) was 29.2%. The IL-18 suppression ([3]; 2 µM) was −15.38%, the IP-10 suppression ([3]; 2 µM) was 64.85% and the MCP-1 suppression ([3]; 2 µM) was 83.18%. The MIP-1β suppression ([3]; 2 µM) was 73.58%, the TNFα suppression ([3]; 2 µM) was 45.33% and the TNFβ suppression ([3]; 2 µM) was 72.69%. For the same compound, the Average cytokine suppression [3] was 50.17%.
